For one data set, the system named is MV4-11 cells. Kind of data set: MV4-11 Cell Cytotoxicity Assay (CellTiter-Blue, 72 h). The data set is classed as cell-based, human. The settings on record: Homo sapiens, MV4-11; MV-4-11 cells. The procedure, abridged: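 Cells seeded 24 h before treatment, then exposed 72 h at 37° C, 5% CO2 to inhibitors in triplicate, top concentration 50 μM with 1:2 serial dilutions (0.5% DMSO vehicle). Viability read by CellTiter-Blue fluorescence at 560/590 nm after 1 h.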
In general terms: Alamar Blue is a resazurin reagent that responds to reducing activity.

A further data set concerns glutathione (GSH). Kind of data set: Reactivity Profiling with Glutathione (GSH), half-life by HPLC. The settings on record: 5 mM glutathione (GSH) in IMDM with 10% FBS.

Results on 21 compounds are retold here after patent US20230159445A1, “STAT INHIBITORY COMPOUNDS AND COMPOSITIONS” (JANPIX LIMITED, priority 2020, published 2023).

With `COc1ccccc1CN(CC(=O)N(Cc1cc(C2CC2)cc(C(C)(C)C)c1)c1ccc(C(=O)O)c(O)c1)S(=O)(=O)c1c(F)c(F)c(F)c(F)c1F` [Compound 1037, 4-(N-(3-(tert-butyl)-5-cyclopropylbenzyl)-2-(N-(2-methoxybenzyl)-(2,3,4,5,6-pentafluoro-phenyl)sulfonamido)acetamido)-2-hydroxybenzoic acid], the IC50 with MV4-11 cells is 1000 to 3160 nM. In the data set with glutathione (GSH), this compound had a half-life at 25 μM of 2.37 to 4.12 h.

Turning to `C[C@H](CC(=O)N(Cc1cc(C2CC2)cc(C(C)(C)C)c1)c1ccc(C(=O)O)c(O)c1)N(Cc1ccc(Cl)cc1)S(=O)(=O)c1c(F)c(F)c(F)c(F)c1F` [Compound 1039, (R)-4-(N-(3-(tert-butyl)-5-cyclopropylbenzyl)-3-(N-(4-chlorobenzyl)-(2,3,4,5,6-pentafluorophenyl)sulfon-amido)butanamido)-2-hydroxybenzoic acid], the IC50 in the data set with MV4-11 cells is 1000 to 3160 nM. In the data set on glutathione (GSH), this compound yielded a half-life at 25 μM of 2.37 to 4.12 h.

`C[C@@H](CC(=O)N(Cc1cc(C2CC2)cc(C(C)(C)C)c1)c1ccc(C(=O)O)c(O)c1)N(Cc1ccc(Cl)cc1)S(=O)(=O)c1c(F)c(F)c(F)c(F)c1F` [Compound 1040, (S)-4-(N-(3-(tert-butyl)-5-cyclopropylbenzyl)-3-(N-(4-chlorobenzyl)-(2,3,4,5,6-pentafluorophenyl)sulfon-amido)butanamido)-2-hydroxybenzoic acid] had an IC50 in the data set on MV4-11 cells of 3160 to 100000 nM. In the data set on glutathione (GSH), this compound gave a half-life at 25 μM of 4.12 to 9.23 h.

For `CC(C)(C)c1cc(CN(C(=O)CN(Cc2ccccc2C(F)(F)F)S(=O)(=O)c2c(F)c(F)c(F)c(F)c2F)c2ccc(C(=O)O)c(O)c2)cc(C2CC2)c1` [Compound 1048, 4-(N-(3-(tert-butyl)-5-cyclopropylbenzyl)-2-(N-(2-(trifluoromethyl)benzyl)-(2,3,4,5,6-pentafluoro-phenyl)sulfonamido)acetamido)-2-hydroxybenzoic acid], the IC50 in the data set with MV4-11 cells was in the range of 1000 to 3160 nM. Further, the half-life at 25 μM in the data set on glutathione (GSH) is 9.23 to 1670 h.

The compound `CC(C)(C)c1cc(CN(C(=O)CN(Cc2ccc(Cl)cc2)S(=O)(=O)c2c(F)c(F)c(F)c(F)c2F)c2ccc(C(=O)O)cc2OC(F)(F)F)cc(C2CC2)c1` [Compound 1050, 4-(N-(3-(tert-butyl)-5-cyclopropylbenzyl)-2-(N-(4-chlorobenzyl)-(2,3,4,5,6-pentafluorophenyl)sulfon-amido)acetamido)-3-(trifluoromethoxy) benzoic acid] showed an IC50 with MV4-11 cells of 1000 to 3160 nM. This compound also registered a half-life at 25 μM in the data set with glutathione (GSH) of 9.23 to 1670 h.

As for `CC(C)(C)c1cc(CN(C(=O)CCN(Cc2ccc(Cl)cc2)S(=O)(=O)c2c(F)c(F)c(F)c(F)c2F)c2ccc(C(=O)O)c(O)c2)cc(C2CC2)c1` [Compound 1052, 4-(N-(3-(tert-butyl)-5-cyclopropylbenzyl)-3-(N-(4-chlorobenzyl)-(2,3,4,5,6-pentafluorophenyl)sulfon-amido)propanamido)-2-hydroxybenzoic acid], in the data set with MV4-11 cells, the IC50 fell in the range of 3160 to 100000 nM. Besides, the half-life at 25 μM with glutathione (GSH) fell in the range of 2.37 to 4.12 h.

As for `O=C(O)c1ccc(N(Cc2cc(Br)cc(C3CC3)c2)C(=O)CN(Cc2ccc(Cl)cc2)S(=O)(=O)c2c(F)c(F)c(F)c(F)c2F)cc1O` [Compound 1054, 4-(N-(3-bromo-5-cyclopropylbenzyl)-2-(N-(4-chlorobenzyl)-(2,3,4,5,6-pentafluorophenyl)sulfon-amido)acetamido)-2-hydroxybenzoic acid], the IC50 with MV4-11 cells was 3160 to 100000 nM. In addition, the half-life at 25 μM in the data set on glutathione (GSH) lay in the range of 0.00167 to 2.37 h.

`CC(C)(C)c1cc(CN(C(=O)CN(Cc2ccc(Cl)cc2)S(=O)(=O)c2c(F)c(F)c(F)c(F)c2F)c2ccc(S(N)(=O)=O)cc2)cc(C2CC2)c1` [Compound 1055, N-(3-(tert-butyl)-5-cyclopropylbenzyl)-2-(N-(4-chlorobenzyl)-(2,3,4,5,6-pentafluorophenyl)sulfon-amido)-N-(4-sulfamoylphenyl) acetamide] yielded an IC50 with MV4-11 cells of 1000 to 3160 nM. In the data set with glutathione (GSH), this compound came in with a half-life at 25 μM of 9.23 to 1670 h.

As for `Cc1cc(C(=O)O)ccc1N(Cc1cc(C2CC2)cc(C(C)(C)C)c1)C(=O)CN(Cc1ccc(Cl)cc1)S(=O)(=O)c1c(F)c(F)c(F)c(F)c1F` [Compound 1056, 4-(N-(3-(tert-butyl)-5-cyclopropylbenzyl)-2-(N-(4-chlorobenzyl)-(2,3,4,5,6-pentafluorophenyl)sulfon-amido)acetamido)-3-methylbenzoic acid], the IC50 with MV4-11 cells fell in the range of 316 to 1000 nM. The same compound displayed a half-life at 25 μM with glutathione (GSH) of 4.12 to 9.23 h.

As to `CC(C)(C)c1cc(CN(C(=O)CN(Cc2ccccc2F)S(=O)(=O)c2c(F)c(F)c(F)c(F)c2F)c2ccc(C(=O)O)cc2N2CCC2)cc(C2CC2)c1` [Compound 1058, 3-(azetidin-1-yl)-4-(N-(3-(tert-butyl)-5-cyclopropylbenzyl)-2-(N-(2-fluorobenzyl)-(2,3,4,5,6-pentafluoro-phenyl)sulfonamido)acetamido)benzoic acid], the IC50 in the data set with MV4-11 cells lay within 316 to 1000 nM. The half-life at 25 μM in the data set with glutathione (GSH) was 9.23 to 1670 h.

`CN(C)c1cc(C(=O)O)c(F)cc1N(Cc1cc(C2CC2)cc(C(C)(C)C)c1)C(=O)CN(Cc1ccccc1F)S(=O)(=O)c1c(F)c(F)c(F)c(F)c1F` [Compound 1060, 4-(N-(3-(tert-butyl)-5-cyclopropylbenzyl)-2-(N-(2-fluorobenzyl)-(2,3,4,5,6-pentafluoro-phenyl)sulfonamido)acetamido)-5-(dimethylamino)-2-fluorobenzoic acid] had an IC50 in the data set with MV4-11 cells of 0.01 to 316 nM. The compound also showed a half-life at 25 μM in the data set with glutathione (GSH) of 4.12 to 9.23 h.

Compound `CN(c1cc(C(=O)O)ccc1N(Cc1cc(C2CC2)cc(C(C)(C)C)c1)C(=O)CN(Cc1ccccc1F)S(=O)(=O)c1c(F)c(F)c(F)c(F)c1F)S(C)(=O)=O` [Compound 1064, 4-(N-(3-(tert-butyl)-5-cyclopropylbenzyl)-2-(N-(2-fluorobenzyl)-(2,3,4,5,6-pentafluoro-phenyl)sulfonamido)acetamido)-3-(N-methylmethylsulfonamido) benzoic acid] came in with an IC50 with MV4-11 cells of 1000 to 3160 nM. In the data set with glutathione (GSH), this compound displayed a half-life at 25 μM of 4.12 to 9.23 h.

In the case of `CC(C)(C)c1cc(CN(C(=O)CN(Cc2ccccc2F)S(=O)(=O)c2c(F)c(F)c(F)c(F)c2F)c2ccc(C(=O)O)cc2F)cc(C2CC2)c1` [Compound 1065, 4-(N-(3-(tert-butyl)-5-cyclopropylbenzyl)-2-(N-(2-fluorobenzyl)-(2,3,4,5,6-pentafluoro-phenyl)sulfonamido)acetamido)-3-fluorobenzoic acid], the concentration for half-maximal inhibition (IC50) in the data set on MV4-11 cells was in the range of 316 to 1000 nM. This compound also showed a half-life at 25 μM in the data set with glutathione (GSH) of 0.00167 to 2.37 h.

With `CC(C)(C)c1cc(CN(C(=O)CN(Cc2ccccc2F)S(=O)(=O)c2c(F)c(F)c(F)c(F)c2F)c2ccc(C(=O)O)c(N)c2)cc(C2CC2)c1` [Compound 1070, 2-amino-4-(N-(3-(tert-butyl)-5-cyclopropylbenzyl)-2-(N-(2-fluorobenzyl)-(2,3,4,5,6-pentafluoro-phenyl)sulfonamido)acetamido)benzoic acid], the half-inhibitory concentration (IC50) in the data set with MV4-11 cells was in the range of 316 to 1000 nM. In addition, the half-life at 25 μM in the data set on glutathione (GSH) was 0.00167 to 2.37 h.

The compound `CN(C)c1cc(N(Cc2cc(C3CC3)cc(C(C)(C)C)c2)C(=O)CN(Cc2ccccc2F)S(=O)(=O)c2c(F)c(F)c(F)c(F)c2F)ccc1C(=O)O` [Compound 1071, 4-(N-(3-(tert-butyl)-5-cyclopropylbenzyl)-2-(N-(2-fluorobenzyl)-(2,3,4,5,6-pentafluoro-phenyl)sulfonamido)acetamido)-2-(dimethylamino) benzoic acid] had an IC50 with MV4-11 cells of 316 to 1000 nM. In the data set on glutathione (GSH), this compound showed a half-life at 25 μM of 2.37 to 4.12 h.

Compound `Cc1cc(C(=O)O)cc(C)c1N(Cc1cc(C2CC2)cc(C(C)(C)C)c1)C(=O)CN(Cc1ccccc1F)S(=O)(=O)c1c(F)c(F)c(F)c(F)c1F` [Compound 1072, 4-(N-(3-(tert-butyl)-5-cyclopropylbenzyl)-2-(N-(2-fluorobenzyl)-(2,3,4,5,6-pentafluoro-phenyl)sulfonamido)acetamido)-3,5-dimethylbenzoic acid] yielded an IC50 in the data set with MV4-11 cells of 316 to 1000 nM. The same compound showed a half-life at 25 μM with glutathione (GSH) of 4.12 to 9.23 h.

In the data set on MV4-11 cells, `COc1cc(C(=O)O)ccc1N(Cc1cc(C2CC2)cc(C(C)(C)C)c1)C(=O)C[C@@H](C)N(Cc1ccccc1F)S(=O)(=O)c1c(F)c(F)c(F)c(F)c1F` [Compound 1073] gave an IC50 of 316 to 1000 nM. Further, the half-life at 25 μM with glutathione (GSH) was in the range of 0.00167 to 2.37 h.

As to `COc1cc(C(=O)O)ccc1N(Cc1cc(C2CC2)cc(C(C)(C)C)c1)C(=O)CN(Cc1ccc(F)cc1F)S(=O)(=O)c1c(F)c(F)c(F)c(F)c1F` [Compound 1076, 4-(N-(3-(tert-butyl)-5-cyclopropylbenzyl)-2-(N-(2,4-difluorobenzyl)-(2,3,4,5,6-pentafluorophenyl)sulfon-amido)acetamido)-3-methoxybenzoic acid], the IC50 in the data set on MV4-11 cells lay in the range of 316 to 1000 nM. This compound returned a half-life at 25 μM with glutathione (GSH) of 2.37 to 4.12 h.

As for `COc1cc(F)ccc1CN(CC(=O)N(Cc1cc(C2CC2)cc(C(C)(C)C)c1)c1ccc(C(=O)O)cc1OC)S(=O)(=O)c1c(F)c(F)c(F)c(F)c1F` [Compound 1077, 4-(N-(3-(tert-butyl)-5-cyclopropylbenzyl)-2-(N-(4-fluoro-2-methoxybenzyl)-(2,3,4,5,6-pentafluoro-phenyl)sulfonamido)acetamido)-3-methoxybenzoic acid], the IC50 with MV4-11 cells lay within 316 to 1000 nM. The half-life at 25 μM in the data set on glutathione (GSH) was in the range of 2.37 to 4.12 h.

In turn, `COc1cc(C(=O)O)ccc1N(Cc1cc(C2CC2)cc(C(C)(C)C)c1)C(=O)CN(Cc1c(Cl)cc(F)cc1Cl)S(=O)(=O)c1c(F)c(F)c(F)c(F)c1F` [Compound 1079, 4-(N-(3-(tert-butyl)-5-cyclopropylbenzyl)-2-(N-(2,6-dichloro-4-fluorobenzyl)-(2,3,4,5,6-pentafluorophenyl)sulfon-amido)acetamido)-3-methoxybenzoic acid] registered an IC50 with MV4-11 cells of 0.01 to 316 nM. The same compound yielded a half-life at 25 μM in the data set on glutathione (GSH) of 4.12 to 9.23 h.

Regarding `COc1cc(C(=O)O)ccc1N(Cc1cc(C2CC2)cc(C(C)(C)C)c1)C(=O)CN(Cc1cccc(F)c1F)S(=O)(=O)c1c(F)c(F)c(F)c(F)c1F` [Compound 1080, 4-(N-(3-(tert-butyl)-5-cyclopropylbenzyl)-2-(N-(2,3-difluorobenzyl)-(2,3,4,5,6-pentafluorophenyl)sulfonamido)acetamido)-3-methoxybenzoic acid], the IC50 with MV4-11 cells lay within 0.01 to 316 nM. In addition, the half-life at 25 μM in the data set on glutathione (GSH) was 2.37 to 4.12 h.

For orientation: IC50 means the concentration that gives 50% inhibition. A higher IC50 goes with weaker potency in that assay. By half-life is commonly meant the time needed for the level to fall by half in the phase considered.
